The text below walks through data of US20080286771A1, “Method of Predicting the Responsiveness of a Tumour to Erbb Receptor Drugs” (priority 2004, published 2008).

The test system of data set [1] is advanced NSCLC. Particulars: advanced NSCLC previously treated with chemotherapy, cited from earlier work.
Data set [2] has as its system MKN45 gastric tumour cell line xenograft. The data set is described as follows: MKN45 xenograft response to gefitinib. The class given is in vivo. Particulars: MKN45 xenograft in athymic mice, oral dosing once daily, mean tumour volume. From the text: (§1) This definition is based on the response observed when the tumour cell line is implanted into nude mice and grown as a xenograft. This definition has been used for all the pre-clinical studies described herein. Initially a small panel of six human tumour cell lines were assembled, three which are sensitive to gefitinib and three which are resistant to gefitinib in the xenograft setting defined above. The sensitive cell lines were; • 1.

Data set [3] concerns DU145 tumour cell line xenograft. Kind of data set: DU145 xenograft response to gefitinib. In kind it is in vivo, nude mice. From the text: (§2) This definition is based on the response observed when the tumour cell line is implanted into nude mice and grown as a xenograft. This definition has been used for all the pre-clinical studies described herein. […] BT474 (ATCC No. HTB-20)-breast tumour cell line • b. DU145 (ATCC No. HTB-81)-[…] tumour cell line • c. MCF7 (ATCC No. HTB-22, sourced from ICRP (now CR-UK), London), -breast tumour cell line • d. GEO colon tumour cell line.

For data set [4], the system named is advanced NSCLC. Conditions: cited from earlier work; for Objective response rate (Complete Response+Partial Response): advanced NSCLC previously treated with chemotherapy.
For the next data set, the system named is KB cell line xenograft. Kind of data set: KB xenograft response to gefitinib. In kind it is in vivo. Conditions: KB xenograft in nude mice.
Text: as §1

In data set [5] the test system is A431 epidermoid cell line xenograft. The data set is described as follows: A431 xenograft response to gefitinib. In kind it is in vivo, nude mice.
Text: as §2

Data set [6] deals with Calu 6 lung tumour cell line xenograft. The data set is described as follows: Calu 6 xenograft response to gefitinib. The class given is in vivo. Conditions: Calu 6 xenograft in nude mice.
Text: as §1

For data set [7], the system named is A549 lung tumour cell line xenograft. The data set is described as follows: A549 xenograft response to gefitinib. The class given is in vivo. Particulars: A549 xenograft in athymic mice, oral dosing once daily, mean tumour volume.
Text: as §2

Data set [8] deals with MiaPac2 pancreatic tumour cell line xenograft. Kind of data set: MiaPac2 xenograft response to gefitinib. In kind it is in vivo, nude mice. The text has this:
(§3) This definition is based on the response observed when the tumour cell line is implanted into nude mice and grown as a xenograft. This definition has been used for all the pre-clinical studies described herein.

Data set [9] deals with HT29 colon tumour cell line xenograft. Kind of data set: HT29 xenograft response to gefitinib. In kind it is in vivo. Conditions: HT29 xenograft in nude mice.
Text: as §1

Data set [10] relates to GEO colon tumour cell line xenograft. The data set is described as follows: GEO xenograft response to gefitinib. In kind it is in vivo, nude mice.
Text: as §2

The subject of data set [11] is Lovo colon tumour cell line xenograft. Kind of data set: Lovo xenograft response to gefitinib. In kind it is in vivo. Particulars: Lovo xenograft in nude mice.
Text: as §1

The test system of data set [12] is PC3 prostate tumour cell line xenograft. The data set is described as follows: PC3 xenograft response to gefitinib. Particulars: PC3 xenograft in nude mice. The class given is in vivo.
Text: as §1

In data set [13] the test system is BT474 breast tumour cell line xenograft. Kind of data set: BT474 xenograft response to gefitinib. The class given is in vivo, nude mice.
Text: as §2

The subject of data set [14] is HX147 lung tumour cell line xenograft. Kind of data set: HX147 xenograft response to gefitinib. In kind it is in vivo, nude mice.
Text: as §3

The subject of data set [15] is SW620 colon tumour cell line xenograft. Kind of data set: SW620 xenograft response to gefitinib. The class given is in vivo, nude mice.
Text: as §3

Data set [16] concerns RT112 bladder tumour cell line xenograft. Kind of data set: RT112 xenograft response to gefitinib. In kind it is in vivo, nude mice.
Text: as §3

Data set [17] has as its system MCF7 breast tumour cell line xenograft. The data set is described as follows: MCF7 xenograft response to gefitinib. The class given is in vivo, nude mice.
Text: as §2

Data set [18] concerns MDAMB231 breast tumour cell line xenograft. Kind of data set: MDAMB231 xenograft response to gefitinib. In kind it is in vivo, nude mice.
Text: as §3

Where two headings read alike, the source gives them in different places.

With `C#Cc1cccc(Nc2ncnc3cc(OCCOC)c(OCCOC)cc23)c1` [erlotinib], the prolongs survival with advanced NSCLC [1] (across the population) was roughly 2 months. Further, the “reduction in risk of death at one year” value in the data set on advanced NSCLC [1] is 41%.
Take `COc1cc2ncnc(Nc3ccc(F)c(Cl)c3)c2cc1OCCCN1CCOCC1` [gefitinib, N-(3-chloro-4-fluorophenyl)-7-methoxy-6-(3-morpholinopropoxy)quinazolin-4-amine]: the “response when grown as a xenograft (sensitive/resistant)” value (from here on “response … (sensitive/resistant)”) is reported as “resistant” in data set [2]; “sensitive” in [3]; “sensitive” in the data set on KB cell line xenograft; “sensitive” in [5]; “resistant” in data set [6]; “sensitive” in data set [7]. Moreover, the “response … (sensitive/resistant)” value is “resistant” in data set [8]; “sensitive” in [9]; “sensitive” in [10]; “sensitive” in data set [11]; “resistant” in [12]; “sensitive” in data set [13]. Besides, the “response … (sensitive/resistant)” value in data set [14] is listed as “resistant”; in data set [15] it was “resistant”; in [16] it was “resistant”; in data set [17] it was “sensitive”; in data set [18], “resistant”. Besides, the “Objective response rate (Complete Response+Partial Response)” value in the data set with advanced NSCLC [4] (IDEAL 1 trial, predominantly Japanese) was 18.4%; in the data set with advanced NSCLC [4] (IDEAL 2 trial, predominantly European-derived population), 11.8%. Besides, in the data set with advanced NSCLC [4] (IDEAL trials), the “patients overall benefit (objective response, stable disease and/or symptom improvement)” value is on record as “approximately 50%”. The “toxicity” value in the data set on advanced NSCLC [4] (single agent, advanced NSCLC patients) is “limited toxicity”.
